In patent publication US5049549A, “Rhodomycins with a modified carbohydrate unit” (Behringwerke Aktiengesellschaft, priority 1988, dated 1991):
Values after ≈ are worked out from the molar mass of the structure shown. Where two headings read alike, the source gives them in different places.

Legend:
[1] = test system: patients; settings: cited from earlier work
[2] = test system: L1210 leukemia cells; experiment: Cytotoxicity for L1210 leukemia cells (stem cell assay, SCA); format: cell-based; settings: Mus musculus
Protocol: The test was carried out in accordance with the methods described by Hamburger and Salmon, with the modifications described below.
Conditioned medium was replaced by McCoy 5A medium. As a consequence of the high cloning rate of the L1210 leukemia cells in soft agar, the number of tumor cells per plate was reduced to 5×10^2.
The cells were incubated with various concentrations of the test substance at 37° C. for 1 h. The cells were subsequently washed twice with McCoy 5A medium and subsequently plated out in a two-layer agar system as upper layer in accordance with the Hamburger and Salmon method.
Additional parallel experiments were carried out using a continuous incubation time, in which case various concentrations of the test substance were mixed with the upper agar layer before plating out of the cells.
The plates were incubated in an incubator with 5% CO2, 20% O2 and 95% relative humidity for 5-7 days. After this time, colonies with a diameter of 60 μm were counted using an invertoscope.
The results have been reported as the percentage of colonies in treated versus untreated groups. The coefficient of variation for repeat experiments was less than 15%.
The IC50 for continuous and one-hour incubation was determined from the dose-effect plot (Tab. 1).

[3] = test system: A 549 cells; experiment: Proliferation test (MTT reduction), A549; format: cell-based
Protocol: (§1) L1210, A 549 or HT 29 in the exponential growth phase are incubated in a cell density of 5×10^3 cells/ml in RPMI 1640 medium in a 96-well microtest plate with various concentrations of the test substance at 37° C., 5% CO2 and 95% relative humidity for 72 h. Control experiments contain merely growth medium in place of test substance. Determinations in quadruplicate are made up for each test substance and for the control. After incubation for 65 h, 50 µl of an MTT solution (2.5 mg/ml in phosphate-buffered saline) are added. In the presence of live cells MTT is reduced to a dark-red insoluble formazan dyestuff. This reaction is complete after 7 h (L1210 cells) or after 24 h (A 549, HT 29 cells), and the supernatant medium is carefully aspirated off. The insoluble dyestuff is dissolved by addition of 100 µl of DMSO, and the extinction of the solution produced in this way is subsequently measured at a wavelength of 492 nm for each well in a 340 CC Multiscan Photometer from Flow.
(§2) The ratio of the extinctions with treated and untreated cells yields a dose-effect plot from which the concentration which just kills 50% of the cells (IC50) can be read off. The coefficient of variation for repeat tests is less than 15%.

[4] = test system: L1210 cells; experiment: Proliferation test (MTT reduction), L1210; format: cell-based
Protocol: as §1, §2

[5] = test system: HT 29 cells; experiment: Proliferation test (MTT reduction), HT29; format: cell-based; settings: Homo sapiens, read-out: IC50 MTT assay HT29
Protocol: as §1, §2

[6] = L1210, 1 h, read-out: IC50 SCA 1 h
[7] = Homo sapiens, A549, 72 h; read-out: IC50 MTT assay A549
[8] = Mus musculus, L1210, 72 h; read-out: IC50 MTT assay L1210
[9] = L1210, 1 h incubation, read-out: IC50 SCA 1 h

Compound	IC50 [3, 7] [µg/mL]	IC50 [4, 8] [µg/mL]	IC50 ([5]; HT-29, HT29, 72 h) [µg/mL]	IC50 [2, 9] [µg/mL]	other results
COc1cccc2c1C(=O)c1c(O)c3c(c(O)c1C2=O)C[C@@](O)(C(=O)CO)C[C@@H]3O[C@H]1C[C@H](N)[C@H](O)[C@H](C)O1 [Adriamycin, reference compound]	–	–	–	–	side effects of the treatment ([1]; clinical use, specialist literature): damage to the circulatory system and symptoms characteristic thereof; IC50 [2, 6]: 0.04 µg/mL (≈ 0.0736 µM); IC50 ([2]; L1210, read-out: IC50 SCA cont.): 0.02 µg/mL (≈ 0.0368 µM)
CC[C@@]1(O)C[C@H](O[C@H]2C[C@H](N)[C@@H](NC(=O)C(F)(F)F)[C@H](C)O2)c2c(O)c3c(c(O)c2[C@H]1O)C(=O)c1cccc(O)c1C3=O [compound 12, 7-O-(3'-Amino-2',3',4',6'-tetradeoxy-4'-trifluoroacetamido-alpha-L-arabinohexopyranosyl)-β-rhodomycinone]	0.027 (≈ 0.0442 µM)	0.03 (≈ 0.0491 µM)	0.022 (≈ 0.036 µM)	0.44 (≈ 0.721 µM)	–
CC[C@@]1(O)C[C@H](O[C@H]2C[C@H](N=[N+]=[N-])[C@H](NC(=O)C(F)(F)F)[C@H](C)O2)c2c(O)c3c(c(O)c2[C@H]1O)C(=O)c1cccc(O)c1C3=O [compound 13, 7-O-(3'-Azido-2',3',4',6'-tetradeoxy-4'-trifluoroacetamido-alpha-L-lyxohexopyranosyl)-β-rhodomycinone]	0.1 (≈ 0.157 µM)	0.1 (≈ 0.157 µM)	0.2 (≈ 0.314 µM)	0.29 (≈ 0.456 µM)	–
CC[C@@]1(O)C[C@H](O[C@H]2C[C@H](NC(=O)C(F)(F)F)[C@H](NC(=O)C(F)(F)F)[C@H](C)O2)c2c(O)c3c(c(O)c2[C@H]1O)C(=O)c1cccc(O)c1C3=O [compound 15, 7-O-(3',4'-bis-(trifluoroacetamido)-2',3',4',6'-tetradeoxy-alpha-L-lyxohexopyranosyl)-β-rhodomycinone]	0.059 (≈ 0.0835 µM)	0.037 (≈ 0.0524 µM)	0.1 (≈ 0.142 µM)	0.43 (≈ 0.609 µM)	–
CC[C@@]1(O)C[C@H](O[C@H]2C[C@H](NC(=O)C(F)(F)F)[C@@H](N=[N+]=[N-])[C@H](C)O2)c2c(O)c3c(c(O)c2[C@H]1O)C(=O)c1cccc(O)c1C3=O [compound 17, 7-O-(4'-Azido-2',3',4',6'-tetradeoxy-3'-trifluoroacetamido-alpha-L-arabinohexopyranosyl)-β-rhodomycinone]	–	–	–	–	IC50 ([3]; Homo sapiens, A549, 72 h, read-out: IC50 MTT assay A549): 0.52 µg/mL (≈ 0.817 µM); IC50 ([4]; Mus musculus, L1210, 72 h, read-out: IC50 MTT assay L1210): 0.33 µg/mL (≈ 0.518 µM); IC50 [2, 6]: 1.4 µg/mL (≈ 2.2 µM); IC50 ([5]; HT-29, 72 h): 0.34 µg/mL (≈ 0.534 µM)
COc1cccc2c1C(=O)c1c(O)c3c(c(O)c1C2=O)C[C@@](O)(C(C)=O)C[C@@H]3O[C@H]1C[C@H](N)[C@H](O)[C@H](C)O1 [daunorubicin]	–	–	–	–	side effects of the treatment ([1]; in vivo): damage to the circulatory system and symptoms characteristic thereof

Continued, in another order:

IC50 [3, 7] [µg/mL]	IC50 [4, 8] [µg/mL]	IC50 ([5]; HT-29, HT29, 72 h) [µg/mL]	Compound	IC50 [2, 9] [µg/mL]	other results
0.14 (≈ 0.264 µM)	0.043 (≈ 0.0812 µM)	0.043 (≈ 0.0812 µM)	CC[C@@]1(O)C[C@H](O[C@H]2C[C@H](O)[C@H](N)[C@H](C)O2)c2c(O)c3c(c(O)c2[C@H]1O)C(=O)c1cccc(OC)c1C3=O [compound 8]	–	–
0.095 (≈ 0.18 µM)	0.039 (≈ 0.0738 µM)	0.033 (≈ 0.0624 µM)	CC[C@@]1(O)C[C@H](O[C@H]2C[C@H](N)[C@H](N)[C@H](C)O2)c2c(O)c3c(c(O)c2[C@H]1O)C(=O)c1cccc(OC)c1C3=O [compound 10, 4-O-Methyl-7-O-(3',4'-diamino-2',3',4',6'-tetradeoxy-alpha-L-lyxohexopyranosyl)-β-rhodomycinone]	–	–
0.04 (≈ 0.0777 µM)	0.01 (≈ 0.0194 µM)	0.069 (≈ 0.134 µM)	CC[C@@]1(O)C[C@H](O[C@H]2C[C@H](N)[C@H](N)[C@H](C)O2)c2c(O)c3c(c(O)c2[C@H]1O)C(=O)c1cccc(O)c1C3=O [compound 16, 7-O-(3',4'-Diamino-2',3',4',6'-tetradeoxy-alpha-L-lyxohexo-pyranosyl)-β-rhodomycinone]	0.069 (≈ 0.134 µM)	–
